{"source": "patent US20260055096A1", "about": "“AZOLE PESTICIDAL COMPOUNDS” (BASF SE, priority 2022, published 2026)", "format_in_all_cases": "in vivo", "key": {"[1]": {"tested_on": "Orchid thrips (Dichromothrips corbetti)", "assay": "Example B.2: Action on orchid thrips (Dichromothrips corbetti), floral-immersion technique", "conditions": "72 hours after treatment, read-out: mortality in comparison with untreated controls", "description": "Dichromothrips corbetti adults used for bioassay were obtained from a colony maintained continuously under laboratory conditions. For testing purposes, the test compound is diluted in a 1:1 mixture of acetone:water (vol:vol), plus Kinetic® HV at a rate of 0.01% v/v.\nThrips potency of each compound was evaluated by using a floral-immersion technique. All petals of individual, intact orchid flowers were dipped into treatment solution and allowed to dryin Petri dishes. Treated petals were placed into individual re-sealable plastic along with about 20 adult thrips. All test arenas were held under continuous light and a temperature of about 28° C. for duration of the assay. After 3 days, the numbers of live thrips were counted on each petal. The percent mortality was recorded 72 hours after treatment."}, "[2]": {"tested_on": "Diamond back moth (Plutella xylostella)", "assay": "Example B.6: Action on diamond back moth (Plutella xylostella), cabbage leaf dip, 3rd instar larvae", "conditions": "foliar, 72 hours after treatment, read-out: mortality in comparison with untreated controls", "description": "The active compound is dissolved at the desired concentration in a mixture of 1:1 (v/v) distilled water: acetone. Surfactant (Kinetic® HV) is added at a rate of 0.01% (v/v). The test solution is prepared at the day of use.\nLeaves of cabbage were dipped in test solution and air-dried. Treated leaves were placed in petri dishes lined with moist filter paper and inoculated with ten 3rd instar larvae. Mortality was recorded 72 hours after treatment. Feeding damages were also recorded using a scale of 0-100%."}, "[3]": {"tested_on": "Southern armyworm (Spodoptera eridania), 2nd instar larvae", "assay": "Example B.7: Action on southern armyworm (Spodoptera eridania), 2nd instar larvae on sprayed lima bean plants", "conditions": "96 h, 4 days after treatment, read-out: mortality in comparison with untreated controls", "description": "The active compounds were formulated by a Tecan liquid handler in 100% cyclohexanone as a 10,000-ppm solution supplied in tubes. The 10,000-ppm solution was serially diluted in 100% cyclohexanone to make interim solutions. These served as stock solutions for which final dilutions were made by the Tecan in 50% acetone:50% water (v/v) into 10 or 20 ml glass vials. A nonionic surfactant (Kinetic®) was included in the solution at a volume of 0.01% (v/v). The vials were then inserted into an automated electrostatic sprayer equipped with an atomizing nozzle for application to plants/insects.\nLima bean plants (variety Sieva) were grown 2 plants to a pot and selected for treatment at the 1st true leaf stage. Test solutions were sprayed onto the foliage by an automated electrostatic plant sprayer equipped with an atomizing spray nozzle. The plants were dried in the sprayer fume hood and then removed from the sprayer. Each pot was placed into perforated plastic bags with a zip closure. About 10 to 11 armyworm larvae were placed into the bag and the bags zipped closed. Test plants were maintained in a growth room at about 25° C. and about 20-40% relative humidity for 4 days, avoiding direct exposure to fluorescent light (24-hour photoperiod) to prevent trapping of heat inside the bags. Mortality and reduced feeding were assessed 4 days after treatment, compared to untreated control plants."}, "[4]": {"tested_on": "boll weevil (Anthonomus grandis)", "assay": "Example B.3: Action on boll weevil (Anthonomus grandis), egg and larval mortality on insect diet", "conditions": "120 h, egg and larval mortality after 5 days, read-out: mortality in comparison with untreated controls", "description": "For evaluating control of boll weevil (Anthonomus grandis) the test unit consisted of 96-well-microtiter plates containing an insect diet and 5-10 A. grandis eggs.\nThe compounds were formulated using a solution containing 75% (v/v) water and 25% (v/v) DMSO. Different concentrations of formulated compounds were sprayed onto the insect diet at […], using a custom-built micro atomizer, at two replications.\nAfter application, microtiter plates were incubated at about 25±1C and about 75±5% relative humidity for 5 days. Egg and larval mortality were then visually assessed."}, "[5]": {"tested_on": "Silverleaf whitefly (Bemisia argentifolii) (adults)", "assay": "Example B.4: Action on silverleaf whitefly (Bemisia argentifolii) adults on sprayed cotton plants", "conditions": "72 h, 3 days after treatment, read-out: mortality in comparison with untreated controls", "description": "The active compounds were formulated by a Tecan liquid handler in 100% cyclohexanone as a 10,000-ppm solution supplied in tubes. The 10,000-ppm solution was serially diluted in 100% cyclohexanone to make interim solutions. These served as stock solutions for which final dilutions were made by the Tecan in 50% acetone:50% water (v/v) into 5 or 10 ml glass vials. A nonionic surfactant (Kinetic®) was included in the solution at a volume of 0.01% (v/v). The vials were then inserted into an automated electrostatic sprayer equipped with an atomizing nozzle for application to plants/insects.\nCotton plants at the cotyledon stage (one plant per pot) were sprayed by an automated electrostatic plant sprayer equipped with an atomizing spray nozzle. The plants were dried in the sprayer fume hood and then removed from the sprayer. Each pot was placed into a plastic cup and about 10 to 12 whitefly adults (approximately 3-5 days old) were introduced. The insects were collected using an aspirator and a nontoxic Tygon® tubing connected to a barrier pipette tip. The tip, containing the collected insects, was then gently inserted into the soil containing the treated plant, allowing insects to crawl out of the tip to reach the foliage for feeding. Cups were covered with a reusable screened lid. […] Mortality was assessed 3 days after treatment, compared to untreated control plants."}, "[6]": {"tested_on": "yellow fever mosquito (Aedes aegypti)", "assay": "whole plant or invertebrate", "conditions": "48 h, larval mortality after 2 days, read-out: mortality in comparison with untreated controls", "description": "For evaluating control of yellow fever mosquito (Aedes aegypti) the test unit consisted of 96-well-microtiter plates containing 200 μl of tap water per well and 5-15 freshly hatched A. aegypti larvae.\nThe active compounds or mixtures were formulated using a solution containing 75% (v/v) water and 25% (v/v) DMSO. Different concentrations of formulated compounds or mixtures were sprayed onto the insect diet at 2.5 μl, using a custom-built micro atomizer, at two replications.\nFor experimental mixtures in these tests identical volumes of both mixing partners at the desired concentrations respectively, were mixed together.\nAfter application, microtiter plates were incubated at 28 #1° C., 80 #5% RH for 2 days. Larval mortality was then visually assessed."}, "[7]": {"tested_on": "tobacco budworm (Heliothis virescens)", "assay": "Example B.5: Action on tobacco budworm (Heliothis virescens), egg and larval mortality on insect diet", "conditions": "120 h, egg and larval mortality after 5 days, read-out: mortality in comparison with untreated controls", "description": "For evaluating control of tobacco budworm (Heliothis virescens) the test unit consisted of 96-well-microtiter plates containing an insect diet and 15-25 H. virescens eggs.\nThe compounds were formulated using a solution containing 75% v/v water and 25% v/v DMSO. Different concentrations of formulated compounds were sprayed onto the insect diet at 10 μl, using a custom-built micro atomizer, at two replications.\nAfter application, microtiter plates were incubated at about 28±1C and about 80±5% relative humidity for 5 days. Egg and larval mortality were then visually assessed."}}}
{"smiles": "Cc1ccc(C(C)C)c(N2C(=O)CS/C2=N\\C(=O)Nc2ccc(-c3nc(NC(=O)c4ccc(OC(F)(F)F)cc4)n(C)n3)cc2Cl)c1", "note": "[Example C-6, N-[5-[3-chloro-4-[[(Z)-[3-(2-isopropyl-5-methyl-phenyl)-4-oxo-thiazolidin-2-ylidene]carbamoyl]amino]phenyl]-2-methyl-1,2,4-triazol-3-yl]-4-(trifluoromethoxy)benzamide]", "values": [{"measurement": "mortality at 300 ppm", "setting": "[1]", "value": "≥ 75", "unit": "%"}, {"measurement": "mortality at 300 ppm", "setting": "[2]", "value": "≥ 75", "unit": "%"}, {"measurement": "mortality at 300 ppm", "setting": "[3]", "value": "≥ 75", "unit": "%"}, {"measurement": "mortality at 800 ppm", "setting": "[4]", "value": "≥ 75", "unit": "%"}, {"measurement": "mortality at 300 ppm", "setting": "[5]", "value": "≥ 75", "unit": "%"}, {"measurement": "mortality at 800 ppm", "setting": "[6]", "value": "≥ 50", "unit": "%"}, {"measurement": "mortality at 800 ppm", "setting": "[7]", "value": "≥ 75", "unit": "%"}]}
